From patent US6900216B2, “Dihydroimidazo[2,1-b]thiazole and dihydro-5h-thiazolo[3,2-A]pyrimidines as antidepressant agents” (Knoll GmbH, priority 2000, dated 2005) come the findings set out here.

Like-named read-outs stand apart in the source and are kept apart here.

Data set [1] has as its target T1, noradrenaline (NA) reuptake sites (Rattus norvegicus, UniProt Q63380).
T1 construct: Frontal cortical tissue from the brains of male Charles River rats; from tissue; host or cells: rat frontal cortical membranes
Nature of the data set: NA uptake: displacement of [3H]nisoxetine from noradrenaline reuptake sites, rat frontal cortical membranes. The following applies: for inhibition at 1 µM: read-out: NA uptake % displacement at 10^−6 M; for Ki: [3H]nisoxetine 0.6 nM, rat frontal cortical membranes, fit to data from three experiments. It counts as binding. The procedure: Frontal cortical tissue from the brains of male Charles River rats weighing 150-250 g was homogenised in ice-cold 50 mM Tris-HCl, pH 7.4 (at 25° C.) containing 120 mM sodium chloride and 5 mM potassium chloride (Tris buffer; 1:60 w/v) using a Kinematic polytron (speed setting 6 for 10 seconds) and centrifuged at 40,000 g for 10 minutes. The supernatant was discarded and the pellet rehomogenised in Tris buffer, 1:60 w/v, and centrifuged at 40,000 g for 10 minutes. This step was repeated twice more so that, in total, the brain tissue was homogenised and centrifuged four times. The final pellet was resuspended in 50 mM Tris-HCl, pH 7.4 containing 300 mM sodium chloride and 5 mM potassium chloride (equivalent to 18.75 mg wet weight of tissue/ml) and used immediately in the binding assay. All centrifugations were performed at 4° C.
Membranes (400 μl; equivalent to 7.5 mg wet weight of tissue/tube) were incubated with 50 μl [^3H]nisoxetine at a single concentration of 0.6 nM and 50 μl of distilled water (total binding) or 50 μl^− of test compound (at a single concentration 10^−6M or at 10 concentrations ranging from 10^−11-10^−3 M) or 50 μl of mazindol (1 μM; non-specific binding) for 4 h at 4° C. Membrane bound radioactivity was recovered by filtration under vacuum through Skatron 11734 filters using a Skatron cell harvester. Filters were rapidly washed with ice-cold 50 mM Tris-HCl, pH 7.4 containing 120 mM sodium chloride and 5 mM potassium chloride (wash setting 9,9,0). The scored filter paper discs were punched out into vials, scintillation fluid added and radioactivity determined by liquid scintillation counting.
(§1) For each of these tests measuring the ability of compounds of Formula I to displace standard ligands from 5-HT1A receptors and 5-hydroxytryptamine (5-HT) and noradrenaline (NA) reuptake sites and muscarinic receptors in vitro, the percentage displacement of specific binding of tritiated ligand by 10^−6 M test compound was calculated in the following way.
(§2) Firstly, specific binding of tritiated ligand in the absence (A) and presence (B) of test compound was determined:
(§3) In the absence of compound: A(dpm)=Total binding (dpm)−Non-specific binding (dpm) In the presence of compound (10^−6 M): B(dpm)=Binding at 10^−6M (dpm)−Non-specific binding (dpm)
(§4) The specific binding of tritiated ligand in the presence (B) of compound was then converted to a percentage of specific binding of tritiated ligand in the absence (A) of compound: % Specific binding at 10^−6 M=B(dpm)/A(dpm)×100
(§5) The percentage displacement of specific binding of tritiated ligand by the test compound (10^−6 M) was then obtained by subtraction of the percentage specific binding in the presence of compound from the percentage specific binding in the absence of compound, which is taken as the maximum binding and so equals 100%:
(§6) % Displacement at 10^−6 M=100−% Specific binding at 10^−6 M.
(§7) In some cases, displacement curves were then produced for compounds which displaced ≧50% of specific binding of the tritiated ligand at 10^−6 M using a range of concentrations of the compound. The Ki was then calculated by simultaneous fitting using equations derived from the Feldman equations by robust non-linear regression to data from three experiments simultaneously (De Lean et al., 1978; Munson and Rodbard, 1980; Feldman, 1992). Munson P J and Rodbard D. Ligand: a versatile computerised approach for characterisation of ligand binding systems. Anal Biochem 1980; 107: 220. Feldman HA. Mathematical theory of complex ligand binding systems at equilibrium: some methods for parameter fitting. Anal Biochem 1992: 48, 317. De Lean A, Munson P J and Rodbard D. Simultaneous analysis of families of sigmoidal curves: application to bioassay, radioligand assay, and physiological dose-response curves. Am J Physiol 1978: 235 (2), E97-E102. […]

The test system of a further data set is muscarinic receptors. As to the kind of experiment: Muscarinic binding: displacement of [3H]N-methylscopolamine, rat frontal cortical membranes. The following applies: for Muscarinic % displacement at 10^−6 M: 10^−6 M test compound, single determination, [3H]N-methylscopolamine; for Ki: [3H]N-methylscopolamine 0.15 nM, rat frontal cortical membranes. The procedure: Frontal cortical tissue from the brains of male Charles River rats weighing 150-250 g was homogenised in ice-cold 20 mM HEPES buffer, pH 7.5 (measured at 25° C.) containing 100 mM sodium chloride and 10 mM magnesium chloride (1:10 w/v) using a Polytron PT3100 (speed setting 21,700 rpm, 3×5 seconds) and centrifuged at 49,500 g for 30 minutes at 4° C. The supernatant was discarded and the pellet rehomogenised in 20 mM HEPES buffer, pH 7.5 containing 100 mM sodium chloride and 10 mM magnesium chloride (equivalent to 12.5 mg wet weight of tissue/ml). Membranes were stored at −80° C. until required.
Membranes were thawed, diluted 1:10 in ice-cold 20 mM HEPES buffer, pH 7.5 containing 100 mM sodium chloride and 10 mM magnesium chloride and homogenised using a Polytron PT3100 as above. Diluted membranes (200 μl; equivalent to 0.25 mg wet weight of tissue/tube) were incubated with 200 μl of 20 mM HEPES buffer, pH 7.5 containing 100 mM sodium chloride and 10 mM magnesium chloride and 50 μl [^3H]N-methylscopolamine at a single concentration of 0.15 nM and 50 μl distilled water (total binding) or 50 μl test compound (at a single concentration of 10^−6 M or at 10 concentrations ranging from 10^−11-10^−3 M) or 50 μl atropine sulphate (1 μM; non-specific binding) for 30 min at 30° C. Membrane bound radioactivity was recovered by filtration under vacuum through Skatron 11734 filters using a Skatron cell harvester. Filters were rapidly washed with ice-cold 20 mM HEPES buffer, pH 7.5 (wash 1,2 at setting 5,5). The scored filter paper discs were punched out into vials, scintillation fluid added and radioactivity determined by liquid scintillation counting.
as §1, §2, §3, §4, §5, §6, §7

T1 sequence (Q63380 1-617): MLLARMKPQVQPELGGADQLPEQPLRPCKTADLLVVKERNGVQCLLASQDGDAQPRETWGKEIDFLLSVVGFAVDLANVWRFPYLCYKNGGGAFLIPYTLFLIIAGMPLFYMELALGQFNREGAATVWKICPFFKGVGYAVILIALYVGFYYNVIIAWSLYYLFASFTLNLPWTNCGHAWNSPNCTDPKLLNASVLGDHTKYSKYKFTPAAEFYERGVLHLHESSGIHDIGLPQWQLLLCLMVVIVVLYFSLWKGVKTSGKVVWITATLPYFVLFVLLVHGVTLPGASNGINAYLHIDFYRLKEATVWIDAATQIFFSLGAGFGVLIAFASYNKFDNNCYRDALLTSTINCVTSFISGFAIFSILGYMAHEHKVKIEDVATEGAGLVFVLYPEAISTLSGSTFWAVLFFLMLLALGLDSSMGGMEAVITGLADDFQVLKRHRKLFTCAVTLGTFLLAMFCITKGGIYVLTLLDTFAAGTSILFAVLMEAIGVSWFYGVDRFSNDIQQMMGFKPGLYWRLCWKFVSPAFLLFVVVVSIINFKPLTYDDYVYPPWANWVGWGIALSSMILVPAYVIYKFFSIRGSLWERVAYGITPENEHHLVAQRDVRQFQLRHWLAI

For the molecule `CSC1=C(c2ccc3sccc3c2)N2CCN=C2S1` [Example 30, 3-(benzo[b]thiophen-5-yl)-2-(methylthio)-5,6-dihydroimidazo[2,1-b]thiazole], the inhibition at 1 µM in data set [1] (10^−6 M test compound, single determination, [3H]nisoxetine) turned out to be 101%. Further, the “Muscarinic % displacement at 10^−6 M” value with muscarinic receptors amounted to 12%.
For the molecule `CSC1=C(c2cccc3sccc23)N2CCN=C2S1.Cl` [Example 22, 3-(benzo[b]thiophen-4-yl)-2-(methylthio)-5,6-dihydroimidazo[2,1-b]thiazole hydrochloride], the melting point was 95 to 105 °C. The molecule also showed a Ki in data set [1] of 1.5 nM. The molecule further had an inhibitory constant (Ki) at muscarinic receptors of 439 nM.
Take `Br.CC1(c2cc3cc(F)ccc3s2)CSC2=NCCN21` (centres unmarked) [Example 27, 3-(5-fluorobenzo[b]thiophen-2-yl)-3-methyl-5,6-dihydroimidazo[2,1-b]thiazole hydrobromide]: in data set [1], the inhibition at 1 µM stood at 72%. For the same molecule, the “Muscarinic % displacement at 10^−6 M” value in the data set with muscarinic receptors is on record as −1%.
On to `Br.CC1=C(c2cccc3sccc23)N2CCN=C2S1` [Example 8, 3-(benzo[b]thiophen-4-yl)-2-methyl-5,6-dihydroimidazo[2,1-b]thiazole hydrobromide], for which the Ki in data set [1] came out at 6.1 nM. Moreover, the “Muscarinic % displacement at 10^−6 M” value in the data set on muscarinic receptors worked out at 0%.
In turn, `Br.CCC1=C(c2cc3c(Cl)cccc3s2)N2CCN=C2S1` [Example 18, 3-(4-chlorobenzo[b]thiophen-2-yl)-2-ethyl-5,6-dihydroimidazo[2,1-b]thiazole hydrobromide] came in with a melting point of 187 to 189 °C. In addition, in data set [1], the Ki amounted to 29.5 nM. In addition, in the data set on muscarinic receptors, the “Muscarinic % displacement at 10^−6 M” value is reported as 12%.
`Cl.Fc1cccc2sc(C3=CSC4=NCCN34)cc12` [Example 5, 3-(4-fluorobenzo[b]thiophen-2-yl)-5,6-dihydroimidazo[2,1-b]thiazole hydrochloride] showed a melting point of 220 to 224 °C. In data set [1], the inhibition at 1 µM was 100%. In addition, the “Muscarinic % displacement at 10^−6 M” value in the data set with muscarinic receptors was 42%.
As to `Br.CC1=C(c2cc3c(F)cccc3s2)N2CCN=C2S1` [Example 7, 3-(4-fluorobenzo[b]thiophen-2-yl)-2-methyl-5,6-dihydroimidazo[2,1-b]thiazole hydrobromide], the melting point is 224 to 226 °C. This molecule also displayed a Ki in data set [1] of 9.5 nM. For the same molecule, the “Muscarinic % displacement at 10^−6 M” value in the data set on muscarinic receptors came to 17%.
With `Br.COc1cccc2cc(C3=C(C)SC4=NCCN43)sc12` [Example 26, 3-(7-methoxybenzo[b]thiophen-2-yl)-2-methyl-5,6-dihydroimidazo[2,1-b]thiazole hydrobromide], the melting point lay within 270 to 272 °C. Also, in data set [1], the inhibition at 1 µM was -3%. Further, the “Muscarinic % displacement at 10^−6 M” value in the data set with muscarinic receptors is −11%.
For `CC(C)C1=C(c2ccc3sccc3c2)N2CCN=C2S1` [Example 29, 3-(benzo[b]thiophen-5-yl)-2-(1-methylethyl)-5,6-dihydroimidazo[2,1-b]-thiazole], the Ki in data set [1] turned out to be 3.7 nM; on muscarinic receptors, 798 nM.
Molecule `C1=C(c2cccc3sccc23)N2CCN=C2S1.Cl` [Example 2, 3-(benzo[b]thiophen-4-yl)-5,6-dihydroimidazo[2,1-b]thiazole hydrochloride] came in with a melting point of 246 to 249 °C. Further, in data set [1], the Ki came out at 9.1 nM. Also, the “Muscarinic % displacement at 10^−6 M” value in the data set with muscarinic receptors is on record as 20%.
Take `OCC1=C(c2ccc3sccc3c2)N2CCN=C2S1` [Example 28, [3-(benzo[b]thiophen-5-yl)-5,6-dihydroimidazo[2,1-b]-thiazol-2-yl]methanol]: the melting point was 149 to 150 °C. In data set [1], this molecule registered a Ki of 5.4 nM. Further, in the data set with muscarinic receptors, the “Muscarinic % displacement at 10^−6 M” value was −8%.
The matching figures for `CSC1=C(c2cc3ccccc3s2)N2CCN=C2S1` [Example 19, 3-(benzo[b]thiophen-2-yl)-2-(methylthio)-5,6-dihydroimidazo[2,1-b]thiazole]: 95 to 97 °C, 5.3 nM and 2%.
The molecule `Br.CC1=C(c2cc3c(C)cccc3s2)N2CCN=C2S1` [Example 16, 2-methyl-3-(4-methylbenzo[b]thiophen-2-yl)-5,6-dihydroimidazo[2,1-b]thiazole hydrobromide] came in with a melting point of 201 to 204 °C. For the same molecule, the inhibition at 1 µM in data set [1] was determined as 83%. Moreover, the “Muscarinic % displacement at 10^−6 M” value with muscarinic receptors is on record as 0%.
The matching figures for `Br.CC1=C(c2cc3c(Cl)c(Cl)ccc3s2)N2CCN=C2S1` [Example 24, 3-(4,5-dichlorobenzo[b]thiophen-2-yl)-2-methyl-5,6-dihydroimidazo[2,1-b]-thiazole hydrobromide]: 244 to 246 °C, 39% and −10%.
With `Br.CC1=C(c2cc3cccc(Cl)c3s2)N2CCN=C2S1` [Example 20, 3-(7-chlorobenzo[b]thiophen-2-yl)-2-methyl-5,6-dihydroimidazo[2,1-b]thiazole hydrobromide], the melting point lay within 294 to 295 °C. Besides, the inhibition at 1 µM in data set [1] is 47%. For the same molecule, in the data set on muscarinic receptors, the “Muscarinic % displacement at 10^−6 M” value was 16%.
The molecule `Br.C=CCC1=C(c2cccc3sccc23)N2CCN=C2S1` [Example 36, 2-allyl-3-(benzo[b]thiophen-4-yl)-5,6-dihydroimidazo[2,1-b]thiazole hydrobromide] registered a melting point of 188 to 190 °C. The molecule also returned a Ki in data set [1] of 1.7 nM. Moreover, affinity on muscarinic receptors was put at a Ki of 66 nM.
The molecule `CC1=C(c2cccc3sccc23)N2CCN=C2S1.Cl` [Example 9, 3-(benzo[b]thiophen-4-yl)-2-methyl-5,6-dihydroimidazo[2,1-b]thiazole hydrochloride] had a Ki in data set [1] of 5.9 nM. Also, the “Muscarinic % displacement at 10^−6 M” value in the data set on muscarinic receptors is listed as 13%.
In data set [1], `Br.Oc1cccc2sc(C3=CSC4=NCCN34)cc12` [Example 12, 2-(5,6-dihydroimidazo[2,1-b]thiazol-3-yl)benzo[b]thiophen-4-ol hydrobromide] had a Ki of 5.8 nM. Also, the “Muscarinic % displacement at 10^−6 M” value in the data set with muscarinic receptors is 22%.
`C=CC1=C(c2cccc3sccc23)N2CCN=C2S1.Cl` [Example 39, 3-(benzo[b]thiophen-4-yl)-2-vinyl-5,6-dihydroimidazo[2,1-b]thiazole hydrochloride] showed a melting point of 195 to 197 °C. Moreover, in data set [1], the inhibition at 1 µM is 100%.

In general, Ki refers to the equilibrium dissociation constant of an inhibitor or competing ligand from its target. A high value points to weaker binding. What is called melting point is the temperature of the solid-liquid transition.
